Assay results published in ChEMBL document CHEMBL1177736, “Isopropylidene substitution increases activity and selectivity of biphenylmethylene 4-pyridine type CYP17 inhibitors” (J Med Chem, 2010).

What was measured:
[1] = biological target: T1, Cytochrome P450 11B1, mitochondrial (Homo sapiens, UniProt P15538); experiment: Inhibition of human CYP11B1 expressed in hamster V79MZh cells; type: cell-based
T1 sequence (P15538 whole entry): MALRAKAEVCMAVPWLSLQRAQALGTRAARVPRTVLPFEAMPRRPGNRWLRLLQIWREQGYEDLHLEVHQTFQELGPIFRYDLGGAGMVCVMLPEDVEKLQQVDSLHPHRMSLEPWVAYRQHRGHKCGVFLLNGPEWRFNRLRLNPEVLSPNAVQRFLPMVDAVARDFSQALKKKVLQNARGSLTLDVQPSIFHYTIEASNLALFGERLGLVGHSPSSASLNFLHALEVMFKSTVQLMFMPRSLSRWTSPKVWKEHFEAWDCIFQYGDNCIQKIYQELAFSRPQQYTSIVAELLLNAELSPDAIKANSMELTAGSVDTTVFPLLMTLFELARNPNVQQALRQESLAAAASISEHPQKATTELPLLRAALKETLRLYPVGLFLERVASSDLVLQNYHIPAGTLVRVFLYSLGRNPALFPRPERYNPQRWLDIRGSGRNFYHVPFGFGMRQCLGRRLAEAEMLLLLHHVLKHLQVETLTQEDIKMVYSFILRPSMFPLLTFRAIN

Aromatase = biological target: T2, Aromatase (Homo sapiens, UniProt P11511); experiment: Inhibition of CYP19 in human placental microsomes; parameters: species or system Placenta
T2 sequence (P11511 whole entry): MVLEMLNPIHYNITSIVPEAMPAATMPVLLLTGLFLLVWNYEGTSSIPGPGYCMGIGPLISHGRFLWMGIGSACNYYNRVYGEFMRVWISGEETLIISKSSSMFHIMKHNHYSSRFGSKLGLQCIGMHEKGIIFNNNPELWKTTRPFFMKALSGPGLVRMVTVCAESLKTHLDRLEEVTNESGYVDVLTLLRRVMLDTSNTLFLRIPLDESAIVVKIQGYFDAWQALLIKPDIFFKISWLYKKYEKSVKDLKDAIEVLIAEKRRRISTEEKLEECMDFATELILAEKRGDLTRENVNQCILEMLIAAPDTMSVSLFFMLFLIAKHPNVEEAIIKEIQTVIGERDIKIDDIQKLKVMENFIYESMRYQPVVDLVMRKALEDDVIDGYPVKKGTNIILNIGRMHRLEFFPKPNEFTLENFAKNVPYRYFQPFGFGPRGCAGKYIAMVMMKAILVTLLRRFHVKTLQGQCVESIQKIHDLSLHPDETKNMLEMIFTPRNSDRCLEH

Cytochrome P450 3A4 = Cytochrome P450 3A4 (Homo sapiens, UniProt P08684); experiment: Inhibition of CYP3A4 expressed in baculovirus infected insect microsomes; parameters: species or system Microsome
[2] = biological target: T3, Cytochrome P450 11B2, mitochondrial (Homo sapiens, UniProt P19099); experiment: Inhibition of human CYP11B2 expressed in hamster V79MZh cells; type: cell-based
T3 sequence (P19099 whole entry): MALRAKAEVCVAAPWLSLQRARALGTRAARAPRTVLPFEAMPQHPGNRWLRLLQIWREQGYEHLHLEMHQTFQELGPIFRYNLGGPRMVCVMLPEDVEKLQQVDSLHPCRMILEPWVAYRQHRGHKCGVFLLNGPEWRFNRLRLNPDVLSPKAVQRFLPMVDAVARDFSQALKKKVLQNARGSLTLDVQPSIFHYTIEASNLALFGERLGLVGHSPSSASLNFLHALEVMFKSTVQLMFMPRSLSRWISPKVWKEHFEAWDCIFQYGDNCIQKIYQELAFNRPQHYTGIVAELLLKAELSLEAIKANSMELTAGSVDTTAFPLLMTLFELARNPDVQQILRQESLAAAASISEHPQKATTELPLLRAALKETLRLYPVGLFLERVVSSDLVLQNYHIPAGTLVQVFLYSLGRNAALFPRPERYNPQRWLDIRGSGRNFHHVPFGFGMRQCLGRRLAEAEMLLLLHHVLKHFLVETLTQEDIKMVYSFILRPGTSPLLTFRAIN

[3] = biological target: T4, Steroid 17-alpha-hydroxylase/17,20 lyase (Homo sapiens, UniProt P05093); experiment: Inhibition of human CYP17 expressed in Escherichia coli coexpressing NADPH-P450 reductase
T4 sequence (P05093 whole entry): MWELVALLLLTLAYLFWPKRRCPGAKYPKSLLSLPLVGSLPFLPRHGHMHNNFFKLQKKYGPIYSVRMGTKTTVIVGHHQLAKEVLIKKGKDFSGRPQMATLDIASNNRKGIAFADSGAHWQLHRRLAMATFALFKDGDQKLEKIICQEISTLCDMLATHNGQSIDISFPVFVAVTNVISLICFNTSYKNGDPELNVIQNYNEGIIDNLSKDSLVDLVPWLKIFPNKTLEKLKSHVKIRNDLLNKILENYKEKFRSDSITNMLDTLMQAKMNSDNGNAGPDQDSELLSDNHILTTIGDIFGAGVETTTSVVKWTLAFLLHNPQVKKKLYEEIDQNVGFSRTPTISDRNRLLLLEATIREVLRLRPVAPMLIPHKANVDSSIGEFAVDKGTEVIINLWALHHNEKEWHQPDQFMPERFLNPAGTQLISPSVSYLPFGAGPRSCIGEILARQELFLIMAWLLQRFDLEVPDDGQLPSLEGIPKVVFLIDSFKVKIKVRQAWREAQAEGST

Sequence of Cytochrome P450 3A4 (P08684 whole entry): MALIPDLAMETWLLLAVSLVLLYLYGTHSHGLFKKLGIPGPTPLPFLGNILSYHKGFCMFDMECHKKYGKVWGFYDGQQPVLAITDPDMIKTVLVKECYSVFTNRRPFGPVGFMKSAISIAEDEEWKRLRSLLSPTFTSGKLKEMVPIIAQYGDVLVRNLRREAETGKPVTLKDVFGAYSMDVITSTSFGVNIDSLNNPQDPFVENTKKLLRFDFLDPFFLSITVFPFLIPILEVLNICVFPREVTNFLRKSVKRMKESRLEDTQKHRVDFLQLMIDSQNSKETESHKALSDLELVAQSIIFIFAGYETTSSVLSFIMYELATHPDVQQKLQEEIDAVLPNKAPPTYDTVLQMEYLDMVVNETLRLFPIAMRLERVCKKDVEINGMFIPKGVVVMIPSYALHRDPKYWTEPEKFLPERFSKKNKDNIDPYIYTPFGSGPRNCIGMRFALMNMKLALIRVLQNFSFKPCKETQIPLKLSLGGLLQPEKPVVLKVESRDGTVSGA

IC50 [1] [nM] | IC50 (Aromatase) [µM] | IC50 (Cytochrome P450 3A4) [nM] | IC50 [2] [nM] | IC50 [3] [nM] | SMILES
2000 | 5.75 | 17600 | 1870 | 75 | CC(C)=C(c1ccncc1)c1ccc(-c2ccc(O)c(F)c2)cc1
– | – | – | – | 343 | CCC(c1ccncc1)c1ccc(-c2ccc(O)c(F)c2)cc1 (stereo unspecified)
502 | 24.6 | – | 368 | 337 | Nc1ccc(-c2ccc(Cc3ccncc3)cc2)cc1N
– | – | – | – | 1460 | CC(C)=C(c1ccncc1)c1ccc(-c2cccc(NC(=O)OC(C)(C)C)c2)cc1
– | – | – | – | 852 | CC(C)=C(c1ccncc1)c1ccc(-c2ccc(NC(=O)OC(C)(C)C)c(F)c2)cc1
1400 | 2.44 | 7580 | 948 | 52 | Oc1ccc(-c2ccc(Cc3ccncc3)cc2)cc1O
342 | 0.663 | 538 | 261 | – | Oc1cccc(-c2ccc(Cc3ccncc3)cc2)c1
287 | 2.83 | – | 921 | 226 | Nc1cccc(-c2ccc(Cc3ccncc3)cc2)c1
– | – | – | – | 189 | CCC(c1ccncc1)c1ccc(-c2cccc(O)c2)cc1 (stereo unspecified)
37500 | 9.5 | 464 | 974 | 37 | CC(C)=C(c1ccncc1)c1ccc(-c2ccc(O)c(O)c2)cc1
7180 | 49.5 | 1770 | 1130 | 75 | CC(C)=C(c1ccncc1)c1ccc(-c2ccc(N)c(N)c2)cc1
7300 | 5.06 | 1330 | 3830 | 38 | CC(C)=C(c1ccncc1)c1ccc(-c2cccc(N)c2)cc1
3100 | 12 | 730 | 3450 | 56 | CC(C)=C(c1ccncc1)c1ccc(-c2cccc(O)c2)cc1
1610 | > 50 | – | 1750 | – | C[C@]12CC[C@H](O)CC1=CC[C@@H]1[C@@H]2CC[C@]2(C)C(c3cccnc3)=CC[C@@H]12 [ABIRATERONE]
351 | 1.67 | 896 | 110 | 186 | Oc1ccc(-c2ccc(Cc3ccncc3)cc2)cc1F
– | – | – | – | 783 | CC(C)C(c1ccncc1)c1ccc(-c2cccc(O)c2)cc1 (stereo unspecified)
– | – | – | – | 493 | CC(C)=C(c1ccncc1)c1ccc(-c2ccc(NC(=O)OC(C)(C)C)cc2)cc1
5060 | 48.7 | – | 49500 | 62 | CC(C)=C(c1ccncc1)c1ccc(-c2ccc3cc(O)ccc3c2)cc1
– | – | – | – | > 10000 | CC(C)=C(c1ccncc1)c1ccc(-c2ccc(NC(=O)OC(C)(C)C)c(NC(=O)OC(C)(C)C)c2)cc1
